Test results taken from ChEMBL document CHEMBL3108760, “Epigallocatechin 3-O-gallate induces 67 kDa laminin receptor-mediated cell death accompanied by downregulation of ErbB proteins and altered lipid raft clustering in mammary and epidermoid carcinoma cells” (J Nat Prod, 2014).
Activity calls are given as the source filed them. The calls are words filed in the database; no cut-off is given here.

Legend:
[1] = target: Small ribosomal subunit protein uS2 (Homo sapiens) (UniProt P08865); assay: Inhibition of 67LR co-localization in lipid rafts containing cholera toxin labeled GM1 gangliosides in human A431 cells after 30 mins by immunofluorescence-based confocal microscopic analysis (reference value: 75%); format: cell-based; details: A-431
[2] = system: A-431; assay: Reduction of clustering of GFP-GPI in lipid rafts of human A431 cells at 100 uM after 12 hrs by confocal microscopic analysis; format: functional, cell-based
[3] = system: SK-BR-3; assay: Reduction of clustering of GFP-GPI in lipid rafts of human SKBR3 cells at 100 uM after 12 hrs by confocal microscopic analysis; format: functional, cell-based
[4] = target: Receptor tyrosine-protein kinase erbB-2 (Homo sapiens) (UniProt P04626); assay: Induction of ErbB2 internalization in lysosome/endosome of human A431 cells in serum free medium at 200 uM after 30 mins by immunofluorescence staining-based confocal microscopic analysis; format: cell-based; details: A-431
[5] = target: Receptor tyrosine-protein kinase erbB-2 (Homo sapiens) (UniProt P04626); assay: Induction of ErbB2 internalization in lysosome/endosome of human SKBR3 cells in serum free medium at 200 uM after 30 mins by immunofluorescence staining-based confocal microscopic analysis; format: cell-based; details: SK-BR-3
[6] = system: A-431; assay: Downregulation of ErbB1 protein expression in human A431 cells in serum free medium at 200 uM after 30 mins by immunofluorescence staining-based confocal microscopic analysis; format: functional, cell-based
[7] = Downregulation of ErbB2 protein expression in human SKBR3 cells in serum free medium at 200 uM after 30 mins by immunofluorescence staining-based confocal microscopic analysis; format: functional, cell-based; details: SK-BR-3
[8] = system: A-431; assay: Downregulation of ErbB1 protein expression in human A431 cells at 50 uM after 24 hrs by immunofluorescence staining-based flow cytometric analysis in presence of serum; format: functional, cell-based
[9] = Downregulation of ErbB2 protein expression in human SKBR3 cells at 50 uM after 24 hrs by immunofluorescence staining-based flow cytometric analysis in presence of serum; format: functional, cell-based; details: SK-BR-3
[10] = system: A-431; assay: Downregulation of ErbB1 protein expression in human A431 cells in serum free medium at 50 uM after 24 hrs by immunofluorescence staining-based flow cytometric analysis; format: functional
[11] = Downregulation of ErbB2 protein expression in human SKBR3 cells in serum free medium at 50 uM after 24 hrs by immunofluorescence staining-based flow cytometric analysis; format: functional, cell-based; details: SK-BR-3
[12] = system: A-431; assay: Cell cycle arrest in human A431 cells at 50 to 75 uM after 36 hrs by propidium iodide staining-based flow cytometric analysis; format: functional
[13] = Cell cycle arrest in human SKBR3 cells at 50 to 75 uM after 36 hrs by propidium iodide staining-based flow cytometric analysis; format: functional; details: SK-BR-3
[14] = system: A-431; assay: Antiproliferative activity against anti-67LR treated human A431 cells overexpressing ErbB assessed as cell viability at 100 to 200 uM after 24 hrs by WST-1 staining-based spectrophotometric analysis; format: functional
[15] = system: A-431; assay: Induction of apoptosis in human A431 cells overexpressing ErbB in complete medium assessed as late apoptotic/necrotic cells at 75 uM after 72 hrs by annexin V-FITC/7-AAD staining-based flow cytometric analysis relative to control; format: functional
[16] = system: SK-BR-3; assay: Induction of apoptosis in human SKBR3 cells overexpressing ErbB in complete medium assessed as late apoptotic/necrotic cells at 75 uM after 72 hrs by annexin V-FITC/7-AAD staining-based flow cytometric analysis relative to control; format: functional
[17] = system: SK-BR-3; assay: Ratio of EC50 for human SKBR3 cells overexpressing ErbB in complete medium to EC50 for human SKBR3 cells overexpressing ErbB in serum-free medium; format: functional
[18] = Antiproliferative activity against human SKBR3 cells overexpressing ErbB in serum-free medium assessed as cell viability after 48 hrs by WST-1 assay; format: functional, cell-based; details: SK-BR-3, 48 h
[19] = Antiproliferative activity against human SKBR3 cells overexpressing ErbB in complete medium assessed as cell viability after 48 hrs by WST-1 assay; format: functional, cell-based; details: SK-BR-3, 48 h
[20] = system: A-431; assay: Ratio of EC50 for human A431 cells overexpressing ErbB in complete medium to EC50 for human A431 cells overexpressing ErbB in serum-free medium; format: functional
[21] = system: A-431; assay: Antiproliferative activity against human A431 cells overexpressing ErbB in complete medium assessed as cell viability after 48 hrs by WST-1 assay; format: functional, cell-based; details: A-431, 48 h
[22] = system: A-431; assay: Antiproliferative activity against human A431 cells overexpressing ErbB in serum-free medium assessed as cell viability after 48 hrs by WST-1 assay; format: functional, cell-based; details: A-431, 48 h
[23] = system: A-431; assay: Cell cycle arrest in human A431 cells assessed as decrease in accumulation at G0/G1 phase at 50 to 75 uM after 36 hrs by propidium iodide staining-based flow cytometric analysis; format: functional
[24] = Cell cycle arrest in human SKBR3 cells assessed as decrease in accumulation at G0/G1 phase at 50 to 75 uM after 36 hrs by propidium iodide staining-based flow cytometric analysis; format: functional; details: SK-BR-3
[25] = Cell cycle arrest in human SKBR3 cells assessed as accumulation at G2/M phase at 50 to 75 uM after 36 hrs by propidium iodide staining-based flow cytometric analysis relative to control; format: functional; details: SK-BR-3
[26] = system: A-431; assay: Cell cycle arrest in human A431 cells assessed as accumulation at G2/M phase at 50 to 75 uM after 36 hrs by propidium iodide staining-based flow cytometric analysis relative to control; format: functional
[27] = system: A-431; assay: Induction of apoptosis in human A431 cells overexpressing ErbB in complete medium assessed as late apoptotic/necrotic cells at 50 to 75 uM after 72 hrs by annexin V-FITC/7-AAD staining-based flow cytometric analysis; format: functional, cell-based
[28] = system: SK-BR-3; assay: Induction of apoptosis in human SKBR3 cells overexpressing ErbB in complete medium assessed as late apoptotic/necrotic cells at 50 to 75 uM after 72 hrs by annexin V-FITC/7-AAD staining-based flow cytometric analysis; format: functional, cell-based

Chain of Receptor tyrosine-protein kinase erbB-2 (Homo sapiens) (P04626 whole entry): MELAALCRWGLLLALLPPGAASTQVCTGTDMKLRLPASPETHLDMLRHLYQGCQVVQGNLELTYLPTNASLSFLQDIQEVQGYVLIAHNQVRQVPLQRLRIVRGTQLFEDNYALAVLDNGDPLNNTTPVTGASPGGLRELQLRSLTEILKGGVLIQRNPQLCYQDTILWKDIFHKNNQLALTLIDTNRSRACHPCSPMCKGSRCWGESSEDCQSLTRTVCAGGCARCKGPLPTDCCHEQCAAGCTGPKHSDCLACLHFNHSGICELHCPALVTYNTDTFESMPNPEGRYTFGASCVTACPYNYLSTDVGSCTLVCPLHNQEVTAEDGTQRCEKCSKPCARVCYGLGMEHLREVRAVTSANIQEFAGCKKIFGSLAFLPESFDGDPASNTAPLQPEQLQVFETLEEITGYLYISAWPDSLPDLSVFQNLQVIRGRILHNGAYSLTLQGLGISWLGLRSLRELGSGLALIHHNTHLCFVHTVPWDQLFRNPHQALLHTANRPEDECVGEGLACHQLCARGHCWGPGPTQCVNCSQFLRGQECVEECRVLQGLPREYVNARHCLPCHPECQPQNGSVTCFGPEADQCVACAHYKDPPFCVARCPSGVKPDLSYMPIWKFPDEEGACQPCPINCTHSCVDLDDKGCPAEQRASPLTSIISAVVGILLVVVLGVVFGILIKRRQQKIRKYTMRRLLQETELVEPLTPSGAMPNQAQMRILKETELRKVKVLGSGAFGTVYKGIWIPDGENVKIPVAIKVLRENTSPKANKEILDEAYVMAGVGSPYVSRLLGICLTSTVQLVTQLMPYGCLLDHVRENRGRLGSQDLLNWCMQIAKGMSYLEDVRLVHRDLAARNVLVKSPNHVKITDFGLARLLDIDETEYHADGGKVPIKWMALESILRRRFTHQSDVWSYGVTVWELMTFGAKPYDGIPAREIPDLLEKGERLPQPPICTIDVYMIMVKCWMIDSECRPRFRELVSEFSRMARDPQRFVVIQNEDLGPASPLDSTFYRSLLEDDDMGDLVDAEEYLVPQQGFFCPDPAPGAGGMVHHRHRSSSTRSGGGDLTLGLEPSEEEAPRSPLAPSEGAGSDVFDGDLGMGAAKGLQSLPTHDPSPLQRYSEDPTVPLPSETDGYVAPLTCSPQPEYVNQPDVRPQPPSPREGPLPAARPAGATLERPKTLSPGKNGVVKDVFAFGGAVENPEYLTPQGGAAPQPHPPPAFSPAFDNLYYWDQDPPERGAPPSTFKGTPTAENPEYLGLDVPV

SMILES	Activity [2]	Activity [3]	Activity [10]	Activity [11]	Ratio EC50 [17]	EC50 [18]	EC50 [19]	Ratio EC50 [20]	EC50 [21]	EC50 [22]	other results
O=C(O[C@@H]1Cc2c(O)cc(O)cc2O[C@@H]1c1cc(O)c(O)c(O)c1)c1cc(O)c(O)c(O)c1 [EPIGALOCATECHIN GALLATE]	Active	Active	30%	30%	2	100 µM	195 µM	2	266 µM	38 µM	inhibition [1]: 47%; Activity [4]: Active; Activity [5]: Active; Activity [6]: Active; Activity [7]: Active; Activity [8]: inactive; Activity [9]: inactive; Activity [12]: inactive; Activity [13]: inactive; Activity [14]: inactive; Activity [15]: 80%; Activity [16]: 40%
O=c1c(-c2ccc(O)cc2)coc2cc(O)cc(O)c12 [GENISTEIN]	inactive	inactive	inactive	inactive	2	97 µM	403 µM	2	278 µM	108 µM	Activity [23]: Active; Activity [24]: Active; Activity [25]: 50%; Activity [26]: Active; Activity [27]: Active; Activity [28]: inactive
